US20200261440A1, “ZINC IONOPHORES AND USES THEREOF” (THE UNIVERSITY OF QUEENSLAND, priority 2017, published 2020)
Where two headings read alike, the source gives them in different places. Marks after values point to notes of the source that are not given here.

Key:
[1] = test system: GAS strain HKU16 (Streptococcus pyogenes strain HKU16); test: microbe, parasite or virus in culture; assay type: cell-based
Method: (§1) J. Path. Bact. […] Proc. Soc.
(§2) MIC assays were carried out in biological triplicates.
(§3) M100 Performance Standards for Antimicrobial Susceptibility Testing, 27th Edition.

[2] = test system: Vancomycin-resistant Enterococci (VRE) clinical isolate RBWH1; test: MIC by broth microdilution (CLSI); assay type: cell-based, Enterococcus; conditions: for antibiotic sensitivity of resistant strain: addition of sub-inhibitory PBT2+zinc(II) ions
Method: as §1, §2, §3

[3] = test system: GAS; test: Drop test assay, growth on THY agar; assay type: cell-based, Streptococcus pyogenes; conditions: PBT2 (1.5 μM), zinc(II) ions (400 μM)
Method: (§4) FIG. 1a illustrates growth of GAS, MRSA and VRE on THY agar in the presence or absence of PBT2 (1.5 μM) and zinc(II) ions (400 μM).
(§5) Bacteria were diluted from overnight cultures to get a starting OD600 of 0.01 in THY. Once the bacteria grew to an OD600 of 0.6, the culture were serially diluted in PBS and 5 μL of each dilution (undiluted, 10^−1, 10^−2, 10^−3, 10^−4, 10^−5) was plated on THY agar plates with or without zinc (400 μM) and/or PBT2 ([…]). Plates were incubated at 37° C. overnight. Drop tests were undertaken in biological triplicates.

[4] = test system: MRSA; test: Drop test assay, growth on THY agar; assay type: cell-based, Staphylococcus aureus; conditions: PBT2 (1.5 μM), zinc(II) ions (400 μM)
Method: as §4, §5

[5] = test system: VRE; test: Drop test assay, growth on THY agar; assay type: cell-based, Enterococcus; conditions: PBT2 (1.5 μM), zinc(II) ions (400 μM)
Method: as §4, §5

[6] = humans; up to 250 mg/day (oral) for 12 weeks; cited from earlier work
[7] = test system: Methicillin-resistant Staphylococcus aureus (MRSA) strain USA300; test: MIC by broth microdilution (CLSI)
Method: GAS HKU16, MRSA USA300, VRE RBWH1, Klebsiella pneumoniae strain MS6771, E. coli strain MS8345 and Streptococcus pneumoniae strain 23F were grown in Todd-Hewitt broth (THB) or agar with 1% yeast extract (THY) [Todd, E. W. & Hewitt, L. F. A new culture medium for the production of antigenic streptococcal haemolysin. […] Bacteria were routinely grown at 37° C. in ambient air.
MICs were determined by broth microdilution in accordance to CLSI guidelines (“Methods for Dilution Antimicrobial Susceptibility Tests for Bacteria That Grow Aerobically”, Clinical and Laboratory Standards Institute) [Clinical and Laboratory Standards Institute. […] For MRSA, VRE, Klebsiella pneumoniae and E. coli the assays were performed in MHB, and for GAS and Streptococcus pneumoniae MHB+2.5% lysed horse blood (LHB) was used. The bacterial inoculum was prepared by direct colony suspension aiming for 2-8×10^5 colony forming units (CFU)/mL bacteria per well. Antibiotics/compounds were serially diluted two-fold across the 96-well plate, the last column contained no antibiotics/compounds. The inoculum was added to the plate containing antibiotic/compound and incubated for 16-24 h at 35+/−2° C. […] MIC assays were carried out in biological triplicates.
Using Clinical and Laboratory Standards Institute guidelines for antimicrobial sensitivity testing [Clinical and Laboratory Standards Institute.

[8] = test system: Klebsiella pneumoniae strain MS6771; test: MIC by broth microdilution (CLSI); assay type: cell-based
[9] = test system: VRE; test: Murine wound infection model; assay type: in vivo, BALB/c mice; conditions: 4 days
Source text: For wound infection, 4-7 week old female BALB/c mice were used and housed in individual cages [Pandey, M. et al. A synthetic M protein peptide synergizes with a CXC chemokine protease to induce vaccine-mediated protection against virulent streptococcal pyoderma and bacteremia. J Immunol 194, 5915-5925, doi:10.4049/jimmunol.1500157 (2015)]. The neck area of the mice was shaved and residual hair removed using Nair (Church & Dwight) prior to the experiment. On the day of infection, mice were anesthetized by inhalation of methoxyflurane and a small superficial scarification was made on the shaved skin using a metal file. For infection, 5×10^6-2×10^7 CFU GAS or 5×10^5-2×10^6 CFU MRSA/VRE were applied onto the scarified skin. […] Mice were treated with ointment twice daily and a total of 9 treatments were applied. […] […] After four days treatment, the mice were euthanized, the scarified skin was excised, and washed twice in PBS by vortexing for 30 seconds. […] Each treatment group contained six mice and statistical significance was calculated using an unpaired t-test (non-parametric).

[10] = test system: MCR-1 E. coli strain MS8345; test: MIC by broth microdilution (CLSI); assay type: cell-based, Escherichia coli; conditions: for antibiotic sensitivity of resistant strain: MCR1-positive E. coli MS8345; for MIC: MCR-1 E. coli
Method: as §1
J Infect Dis. 1995 171:890-6). E. coli strain MS8345 is a MCR-1 resistant clinical isolate supplied by Prof. D. L. Paterson, University of Queensland Centre for Clinical Research.
(§6) (2017)]. […] MIC assays were carried out in biological triplicates.

[11] = test system: A. baumannii strain 42-A; test: MIC by broth microdilution (CLSI); assay type: cell-based, Acinetobacter baumannii; conditions: Untreated
Method: (§7) They were obtained from Jan Bell, Australian Centre of Microbial Resistance Ecology (ACARE), University of Adelaide, Australia.
as §6

[12] = test system: P. aeruginosa strain 253-43-C; test: MIC by broth microdilution (CLSI); assay type: cell-based, Pseudomonas aeruginosa
Method: as §7, §6

[13] = K. pneumoniae, RA-HQ-12: 16 μM, Zn: 64 μM
[14] = MRSA, RA-HQ-12: 3.5 μM, Zn: […], oxacillin with 2% NaCl
[15] = MRSA, RA-HQ-12: 3.5 μM, oxacillin with 2% NaCl

For `CN(C)Cc1ccc2c(Cl)cc(Cl)c(O)c2n1` [PBT2, 5,7-dichloro-2-[(dimethylamino)methyl]-8-quinolinol], the MIC ([1]; Streptococcus pyogenes, GAS HKU 16, substance alone, read-out: MIC) was > 30 µM, the MIC ([2]; Enterococcus, VRE RBWH1, substance alone, read-out: MIC) was 1.9 µM and the antibacterial activity [3] was “neither PBT2 nor zinc(II) ions (in the form of zinc chloride) displayed antibacterial activity”. For the same compound, the antibacterial activity [4] was “neither PBT2 nor zinc(II) ions (in the form of zinc chloride) displayed antibacterial activity”, the antibacterial activity [5] was “neither PBT2 nor zinc(II) ions (in the form of zinc chloride) displayed antibacterial activity” and the safety and tolerability [6] was “safe and well tolerated”. For the same compound, the MIC ([7]; Staphylococcus aureus, MRSA USA300, substance alone) was 3.75 µM.
`CN[C@H](CC(C)C)C(=O)N[C@H]1C(=O)N[C@@H](CC(N)=O)C(=O)N[C@H]2C(=O)N[C@H]3C(=O)N[C@H](C(=O)N[C@H](C(=O)O)c4cc(O)cc(O)c4-c4cc3ccc4O)[C@H](O)c3ccc(c(Cl)c3)Oc3cc2cc(c3O[C@@H]2O[C@H](CO)[C@@H](O)[C@H](O)[C@H]2O[C@H]2C[C@](C)(N)[C@H](O)[C@H](C)O2)Oc2ccc(cc2Cl)[C@H]1O` [Vancomycin, vancomycin] gave an MIC ([1]; Streptococcus pyogenes, GAS, RA-HQ-12: 3.5 μM) of 0.5 µg/mL, an MIC ([1]; Streptococcus pyogenes, GAS, RA-HQ-12: 3.5 μM, Zn: […]) of 0.25 µg/mL and an MIC ([1]; Streptococcus pyogenes, GAS, Zn: […] (RA-HQ-12 panel)) of 0.5 µg/mL. For the same compound, the MIC ([1]; Streptococcus pyogenes, GAS, RA-HQ-12: 0 μM, Zn: 0 μM) was 0.5 µg/mL, the MIC ([2]; Enterococcus, VRE, VRE RBWH1, CQ: 0 μM, Zinc: 0 μM) was > 128 µg/mL and the MIC ([2]; Enterococcus, VRE, VRE RBWH1, CQ: 2.5 μM) was > 128 µg/mL. For the same compound, the MIC ([2]; Enterococcus, VRE, VRE RBWH1, CQ: 2.5 μM, Zinc: 32 μM) was 1 µg/mL, the MIC ([2]; Enterococcus, VRE, VRE RBWH1, PBT2: 0 μM, Zinc: 0 μM) was > 128 µg/mL and the MIC ([2]; Enterococcus, VRE, VRE RBWH1, PBT2: 1.75 μM) was > 128 µg/mL. For the same compound, the MIC ([2]; Enterococcus, VRE, VRE RBWH1, PBT2: 1.75 μM, Zinc: […]) was 1 to 2 µg/mL, the MIC ([2]; Enterococcus, VRE, VRE RBWH1, Zinc: 32 μM) was > 128 µg/mL and the MIC ([2]; Enterococcus, VRE, VRE RBWH1, Zinc: […] (PBT2 panel)) was > 128 µg/mL. For the same compound, the MIC ([2]; Enterococcus, VRE, RA-HQ-12: 0 μM, Zn: 0 μM) was > 128 µg/mL, the MIC ([2]; Enterococcus, VRE, RA-HQ-12: 3.5 μM) was > 128 µg/mL and the MIC ([2]; Enterococcus, VRE, RA-HQ-12: 3.5 μM, Zn: […]) was > 128 µg/mL. The MIC ([2]; Enterococcus, VRE, Zn: […] (RA-HQ-12 panel)) was > 128 µg/mL, the “antibiotic sensitivity of resistant strain” value (“antibiotic sensitivity” below) ([2]; VRE RBWH1) was “became sensitive” and the MIC ([8]; K. pneumoniae, RA-HQ-12: 16 μM) was >128 µg/mL. The MIC [8, 13] was >128 µg/mL, the MIC ([8]; K. pneumoniae, Zn: 64 μM) was >128 µg/mL and the MIC ([8]; Klebsiella pneumoniae, MS6771) was > 128 µg/mL. The “bacterial burden at the site of infection (CFUs)” value ([9]; 1.5% vancomycin in combination with 2 mM PBT2 + 25 mM ZnSO4, ointment twice daily) was “significantly reducing infection”, the “bacterial burden at the site of infection (CFUs)” value ([9]; treatment alone: 2 mM PBT2 + 25 mM ZnSO4, or 1.5% vancomycin, ointment twice daily) was “Neither antibiotic nor sub-inhibitory concentrations of PBT2+zinc(II) ions alone reduced bacterial burden” and the MIC [7, 14] was 1 µg/mL. For the same compound, the MIC [7, 15] was 1 µg/mL and the MIC ([7]; Staphylococcus aureus) was 1 µg/mL.
With colistin the antibiotic resensitization ([1]; GAS HKU16, RA-HQ-12+zinc(II) ions (ZnSO4)) was “resensitize”, the “antibiotic sensitivity” value ([1]; GAS HKU16, addition of sub-inhibitory PBT2+zinc(II) ions) was “became sensitive” and the MIC ([1]; GAS, RA-HQ-12: 3.5 μM, Zn: […]) was 2-4^# μg/mL. The MIC ([1]; Streptococcus pyogenes HKU16, CQ: 6 μM) was 64 µg/mL, the MIC ([1]; Streptococcus pyogenes HKU16, CQ: 6 μM, Zinc: 80 μM) was 1 µg/mL and the MIC ([1]; Streptococcus pyogenes HKU16, PBT2: 4.75 μM) was 32 µg/mL. The MIC ([1]; Streptococcus pyogenes HKU16, PBT2: 4.75 μM, Zinc: […]) was 0.5-1^ μg/mL, the MIC ([2]; VRE RBWH1, CQ: 2.5 μM, Zinc: 32 μM) was 0.5 to 1 µg/mL and the MIC ([2]; VRE RBWH1, PBT2: 1.75 μM, Zinc: […]) was 0.5 µg/mL. For the same compound, the antibiotic resensitization ([2]; VRE RBWH1, RA-HQ-12+zinc(II) ions (ZnSO4)) was “resensitize”, the “antibiotic sensitivity” value ([2]; VRE RBWH1) was “became sensitive” and the MIC ([2]; VRE, RA-HQ-12: 3.5 μM) was 32 µg/mL. For the same compound, the MIC ([2]; VRE, RA-HQ-12: 3.5 μM, Zn: […]) was 2-4^# μg/mL, the MIC ([8]; K. pneumoniae, RA-HQ-12: 0 μM, Zn: 0 μM) was 64 µg/mL and the MIC ([8]; K. pneumoniae, RA-HQ-12: 16 μM) was 32 µg/mL. The MIC [8, 13] was 4^# μg/mL, the MIC ([8]; K. pneumoniae, Zn: 64 μM) was 64 µg/mL and the antibiotic resensitization ([8]; Klebsiella pneumoniae MS6771, RA-HQ-12+zinc(II) ions (ZnSO4)) was “resensitize”. The “antibiotic sensitivity” value ([8]; Klebsiella pneumoniae MS6771, addition of sub-inhibitory PBT2+zinc(II) ions) was “became sensitive”, the “antibiotic sensitivity” value ([8]; Klebsiella pneumoniae MS6771, combination with PBT2, no zinc) was “resulted in sensitivity” and the MIC ([8]; Klebsiella pneumoniae, CQ: 0 μM, Zinc: 0 μM) was 64 µg/mL. For the same compound, the MIC ([8]; Klebsiella pneumoniae, CQ: 64 μM) was 0.5 µg/mL, the MIC ([8]; Klebsiella pneumoniae, CQ: 64 μM, Zinc: 256 μM) was 0.5 µg/mL and the MIC ([8]; Klebsiella pneumoniae, PBT2: 0 μM, Zinc: 0 μM) was 32 to 64 µg/mL. The MIC ([8]; Klebsiella pneumoniae, Zinc: 256 μM (CQ panel)) was 32 to 64 µg/mL, the MIC ([8]; Klebsiella pneumoniae, Zinc: 256 μM (PBT2 panel)) was 32 to 64 µg/mL and the “antibiotic sensitivity” value ([10]; addition of sub-inhibitory PBT2+zinc(II) ions) was “became sensitive”. For the same compound, the “antibiotic sensitivity” value ([10]; combination with PBT2, no zinc) was “resulted in sensitivity”, the MIC ([10]; CQ: 0 μM, Zinc: 0 μM) was 8 µg/mL and the MIC ([10]; CQ: 5 μM) was 2 µg/mL. The MIC ([10]; CQ: 5 μM, Zinc: 25 μM) was 0.5 to 1 µg/mL, the MIC ([10]; PBT2: 0 μM, Zinc: 0 μM) was 8 µg/mL and the MIC ([10]; PBT2: 7 μM) was 1 µg/mL. For the same compound, the MIC ([10]; PBT2: 7 μM, Zinc: 200 μM) was 0.25 µg/mL, the MIC ([10]; Zinc: 25 μM) was 8 µg/mL and the MIC ([10]; Zinc: 200 μM) was 8 µg/mL. The MIC [11] was >64 µg/mL, the MIC ([12]; PBT2) was 1 µg/mL and the MIC ([12]; Untreated) was 8 µg/mL. For the same compound, the MIC ([7]; MRSA USA300, CQ: 1 μM, Zinc: 32 μM) was 2 µg/mL, the MIC ([7]; MRSA USA300, PBT2: 2 μM, Zinc: 50 μM) was 2 µg/mL and the antibiotic resensitization ([7]; MRSA USA 300, RA-HQ-12+zinc(II) ions (ZnSO4)) was “resensitize”. The “antibiotic sensitivity” value ([7]; MRSA USA300, addition of sub-inhibitory PBT2+zinc(II) ions) was “became sensitive”, the MIC [7, 14] was 8 µg/mL and the MIC [7, 15] was 64 µg/mL.
